Results: patent US20040209897A1 (Pharmacia Corporation, priority 2002, published 2004)

Legend:
SCW-induced arthritis = assay: Streptococcus cell wall (SCW)-induced arthritis, paw volume / paw swelling; format: in vivo; conditions: rats, FIG. 4, A at 20, 60, 200 mpk/day, B at 60, 120, 240 mpk/day
[1] = system: streptococcal cell wall (SCW)-induced arthritis; assay: Chronic streptococcal cell wall (SCW)-induced arthritis in Lewis rats, paw volume; format: in vivo; conditions: female Lewis rats, daily dosing from day 10, paw volume measured 11 days after start of administration, A at 200, 60, 20 mpk/day, B at 240, 120, 60 mpk/day, FIG. 3
Text: The use of Lewis rats with chronic streptococcal cell wall (SCW)-induced arthritis as models for testing potentially therapeutic compounds has been described by Richards, P. J., et al., Rhermatology (Oxford), 40(9):978-987 (2001), and Melay, L. M. et al, Bioorg. Med. Chem., 9(2):537-554 (2001), among others. In the present test, female Lewis rats were divided into eight groups. One group served as the “normal” control and received no arthritis inducement. Chronic streptococcal cell wall (SCW)-induced arthritis was induced in the remaining seven groups. One of the severn groups in which arthritis was induced served as a “vehicle” control and received dosage only of vehicle at the same intervals as those rats receiving the test compounds. Three additional groups of rats received the vehicle plus 2-{2-[(E)-2-phenylethenyl]pyridin-4-yl}-1,5,6,7-tetrahydro-4H-pyrrolo[3,2-c]pyridin-4-one (Compound “A”) in daily dosages. All rats were started on the test at day 0. […]
To measure the effectiveness of the compounds for the treatment of SCW-induced arthritis, rat paw volume was measured at eleven (11) days from the initiation of administration of the test compounds. […]

MK-2 = conditions: cited from earlier work
endotoxin-induced shock = conditions: murine model of endotoxin-induced shock; cited from earlier work
[2] = system: collagen-induced arthritis; conditions: mouse; cited from earlier work
adjuvant arthritis = conditions: rat; cited from earlier work
granulomas = conditions: laboratory rats; cited from earlier work

## O=C(O)C(F)(F)F.O=C1NCCc2[nH]c(-c3ccnc(-c4ccccc4F)c3)cc21 [B, 2-[2-(2-fluorophenyl)pyridin-4-yl]-1,5,6,7-tetrahydro-4H-pyrrolo[3,2-c]pyridin-4-one trifluoroacetate]
SCW-induced arthritis
  percent inhibition in paw swelling as a function of the dosage rate: typical dose-response behavior
[1]
  average paw volume (increase versus vehicle controls): significantly lower increases in paw volume

## O=C1NCCc2[nH]c(-c3ccnc(/C=C/c4ccccc4)c3)cc21 [Compound A, 2-{2-[(E)-2-phenylethenyl]pyridin-4-yl}-1,5,6,7-tetrahydro-4H-pyrrolo[3,2-c]pyridin-4-one]
SCW-induced arthritis
  percent inhibition in paw swelling as a function of the dosage rate: typical dose-response behavior
[1]
  average paw volume (increase versus vehicle controls): significantly lower increases in paw volume

## C[S+]([O-])c1ccc(-c2nc(-c3ccncc3)c(-c3ccc(F)cc3)[nH]2)cc1 (stereo not drawn) [SB203580]
MK-2
  inhibition of activation of MK-2: inhibit activation
endotoxin-induced shock
  mortality: reduce mortality
[2]
  development of collagen-induced arthritis: inhibit the development
Adjuvant arthritis
  development of adjuvant arthritis: inhibit the development

## Nc1nccc(-c2c(-c3ccc(F)cc3)ncn2C2CCNCC2)n1 [SB 220025]
granulomas
  vascular density of granulomas: significant dose-dependent decrease
